The text below walks through data of ChEMBL document CHEMBL4418499, “Inhibitors of trim33 and methods of use” (2018).

Test [1] addresses T1, Transcription intermediary factor 1-alpha (Homo sapiens, UniProt O15164).
T1 sequence (O15164 whole entry): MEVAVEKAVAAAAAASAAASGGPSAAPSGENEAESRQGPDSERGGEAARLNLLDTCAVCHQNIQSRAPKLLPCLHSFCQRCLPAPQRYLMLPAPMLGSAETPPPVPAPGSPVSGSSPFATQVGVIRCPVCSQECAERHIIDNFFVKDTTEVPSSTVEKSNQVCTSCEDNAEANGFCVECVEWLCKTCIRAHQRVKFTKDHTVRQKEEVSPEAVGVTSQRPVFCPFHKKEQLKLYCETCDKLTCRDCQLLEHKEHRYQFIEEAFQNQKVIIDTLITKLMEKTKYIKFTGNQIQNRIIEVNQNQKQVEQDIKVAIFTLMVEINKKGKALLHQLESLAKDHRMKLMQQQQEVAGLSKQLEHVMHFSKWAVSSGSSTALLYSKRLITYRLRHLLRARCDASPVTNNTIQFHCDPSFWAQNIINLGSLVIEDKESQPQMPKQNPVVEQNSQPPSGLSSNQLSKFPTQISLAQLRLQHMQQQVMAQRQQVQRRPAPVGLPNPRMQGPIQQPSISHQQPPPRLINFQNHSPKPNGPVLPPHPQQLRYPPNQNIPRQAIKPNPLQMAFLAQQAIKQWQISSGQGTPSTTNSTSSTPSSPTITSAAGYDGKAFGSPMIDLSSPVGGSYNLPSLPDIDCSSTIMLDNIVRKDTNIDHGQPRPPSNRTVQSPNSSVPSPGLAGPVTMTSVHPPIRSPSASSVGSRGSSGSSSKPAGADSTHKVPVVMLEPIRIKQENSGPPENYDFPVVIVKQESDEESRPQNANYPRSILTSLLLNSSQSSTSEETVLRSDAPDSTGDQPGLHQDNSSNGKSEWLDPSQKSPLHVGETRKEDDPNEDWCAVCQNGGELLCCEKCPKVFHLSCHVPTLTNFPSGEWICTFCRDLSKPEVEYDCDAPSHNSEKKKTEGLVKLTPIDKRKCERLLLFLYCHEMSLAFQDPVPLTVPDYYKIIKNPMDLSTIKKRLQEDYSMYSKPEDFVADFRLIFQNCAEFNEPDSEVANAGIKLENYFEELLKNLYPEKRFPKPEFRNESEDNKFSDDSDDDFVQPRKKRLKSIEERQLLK
As to the kind of experiment: Inhibition of recombinant TRIM24 (unknown origin) using biotinylated H3 peptide (H3K9me3K18ac) by AlphaScreen assay.

In test [2] the target is T2, E3 ubiquitin-protein ligase TRIM33 (Homo sapiens, UniProt Q9UPN9).
T2 sequence (Q9UPN9 whole entry): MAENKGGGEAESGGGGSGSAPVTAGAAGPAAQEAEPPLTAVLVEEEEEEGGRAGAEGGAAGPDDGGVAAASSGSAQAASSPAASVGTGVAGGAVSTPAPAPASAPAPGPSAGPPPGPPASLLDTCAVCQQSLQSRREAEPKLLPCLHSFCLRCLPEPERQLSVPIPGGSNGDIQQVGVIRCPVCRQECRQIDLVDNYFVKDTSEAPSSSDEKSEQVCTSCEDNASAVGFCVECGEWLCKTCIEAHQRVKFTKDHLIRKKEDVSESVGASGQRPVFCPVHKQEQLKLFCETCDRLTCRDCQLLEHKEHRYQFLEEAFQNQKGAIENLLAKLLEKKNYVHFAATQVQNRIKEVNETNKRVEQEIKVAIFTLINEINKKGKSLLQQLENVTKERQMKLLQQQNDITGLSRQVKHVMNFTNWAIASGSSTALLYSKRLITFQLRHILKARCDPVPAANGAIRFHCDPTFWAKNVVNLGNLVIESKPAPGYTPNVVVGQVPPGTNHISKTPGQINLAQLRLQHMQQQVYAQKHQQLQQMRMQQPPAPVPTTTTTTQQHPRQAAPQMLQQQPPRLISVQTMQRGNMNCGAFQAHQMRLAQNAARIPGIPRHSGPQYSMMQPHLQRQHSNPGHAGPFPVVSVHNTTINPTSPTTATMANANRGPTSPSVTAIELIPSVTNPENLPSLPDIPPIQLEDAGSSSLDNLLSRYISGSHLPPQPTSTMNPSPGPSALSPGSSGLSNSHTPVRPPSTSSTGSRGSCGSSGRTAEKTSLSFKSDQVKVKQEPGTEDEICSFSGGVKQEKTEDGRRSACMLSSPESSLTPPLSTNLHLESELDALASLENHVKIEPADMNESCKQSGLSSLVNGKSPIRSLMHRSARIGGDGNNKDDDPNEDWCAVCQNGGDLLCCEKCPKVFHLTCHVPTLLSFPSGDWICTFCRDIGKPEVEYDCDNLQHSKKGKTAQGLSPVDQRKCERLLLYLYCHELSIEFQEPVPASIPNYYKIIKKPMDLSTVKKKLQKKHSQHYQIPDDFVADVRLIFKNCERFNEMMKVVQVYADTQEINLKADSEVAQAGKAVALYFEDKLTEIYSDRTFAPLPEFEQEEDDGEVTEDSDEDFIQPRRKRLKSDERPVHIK
Put plainly: Inhibition of recombinant TRIM33 PHD bromodomain (unknown origin) using biotinylated H3 peptide (H3K9me3K18ac) by AlphaScreen assay.

Structures are written as SMILES.

For `Cc1nc(-c2nc3cnccn3c2NC2CCCCC2)c[nH]1`, the results for the IC50 in test [1] and in test [2] were 186 µM and 415 µM, respectively.

With `COC(=O)c1ccc2nc(-c3ccc4nccn4c3)c(NCCN3CCOCC3)n2c1`, the concentration for half-maximal inhibition (IC50) was 700 µM in test [1] and 303 µM in test [2].

Turning to `COc1ccc(CCNc2c(-c3nc[nH]c3C)nc3ccc(Br)cn23)cc1OC`, in test [1], the IC50 is 28.9 µM.

As to `O=Cc1cccc(-c2ccc(C(=O)O)cc2)c1`, the 50% inhibitory concentration (IC50) is 0.165 µM in test [1] and 0.336 µM in test [2].

Regarding `O=Cc1ccccc1O`, the half-inhibitory concentration (IC50) amounted to 0.221 µM in test [1] and 0.299 µM in test [2].

Consider `COc1ccc(CCNc2c(-c3c[nH]c(C)n3)nc3ccccn23)cc1OC`, for which, in test [1], the IC50 was 44.4 µM.

In the case of `CCCOc1ccn2c(C(C)=O)cc(-c3nc4ccc(C(=O)OC)cn4c3NC3CCCCC3)c2c1`, the half-inhibitory concentration (IC50) in test [1] was found to be 255 µM.

Turning to `O=C1CCCC1` [CYCLOPENTANONE], the IC50 in test [1] was 0.136 µM; in test [2], 0.234 µM.

For `COc1cc(C=O)ccc1O` [VANILLIN], the values for the concentration for half-maximal inhibition (IC50) in test [1] and in test [2] were 0.162 µM and 0.326 µM, respectively.

With `Brc1ccc2nc(-c3ccc4nccn4c3)c(NC3CCCCC3)n2c1`, the IC50 in test [1] is 100 µM.

In the case of `COCCNc1c(-c2c[nH]c(C)n2)nc2ccc(C(=O)OC)cn12`, the IC50 is 4.07 µM in test [1] and 10.5 to 56.9 µM in test [2].

Take `COC(=O)c1ccc2nc(-c3ccc4nccn4c3)c(NC3CCCCC3)n2c1`: the IC50 in test [1] came to 502 µM; in test [2] it was 42.6 µM.

Consider `COc1ccc(Nc2c(-c3[nH]cnc3C)nc3ccc(Br)cn23)cc1`, for which the 50% inhibitory concentration (IC50) was 2.59 µM in test [1] and 0.0137 µM in test [2].

Consider `COCCNc1c(-c2nc[nH]c2C)nc2ccc(Br)cn12`, for which, in test [1], the 50% inhibitory concentration (IC50) came out at 134 µM.

In the case of `Cc1nc[nH]c1-c1nc2ccccn2c1NC1CCCCC1`, the IC50 in test [1] worked out at 9.03 µM; in test [2] it was 1.07 µM.

Consider `COc1ccc(Nc2c(-c3c[nH]c(C)n3)nc3cnccn23)cc1`, for which the values for the IC50 in test [1] and in test [2] were 385 µM and 153 µM, respectively.

Take `Cn1cccc1C=O`: the IC50 in test [1] worked out at 0.18 µM; in test [2], 0.305 µM.

`CCCOc1ccn2c(C(C)=O)cc(-c3nc4ccc(C(=O)OC)cn4c3NCCOC)c2c1`: the concentration for half-maximal inhibition (IC50) in test [1] amounted to 2880 µM.

As for `O=Cc1ccc(N2CCCC2)cc1`, the IC50 in test [1] turned out to be 0.133 µM; in test [2], 0.269 µM.

With `CCCOc1ccn2c(C(C)=O)cc(-c3nc4cnccn4c3NC3CCCCC3)c2c1`, the IC50 in test [2] came to 80 µM.

Take `c1cn2c(NC3CCCCC3)c(-c3ccc4nccn4c3)nc2cn1`: the IC50 was 320 µM in test [1] and 169 µM in test [2].

For the compound `COC(=O)c1ccc2nc(-c3nc[nH]c3C)c(NC3CCCCC3)n2c1`, the IC50 in test [1] was 143 µM.

Turning to `CCCOc1ccn2c(C(C)=O)cc(-c3nc4ccc(C(=O)OC)cn4c3NCCc3ccc(OC)c(OC)c3)c2c1`, in test [1], the concentration for half-maximal inhibition (IC50) was 5650 µM.

Take `Cc1cccc2c(C=O)c[nH]c12`: the IC50 in test [1] came to 0.157 µM; in test [2], 0.24 µM.

Regarding `Cc1[nH]cnc1-c1nc2ccc(Br)cn2c1NCCN1CCOCC1`, the IC50 in test [1] came to 117 µM.

For the compound `CCCOc1ccn2c(C(C)=O)cc(-c3nc4ccccn4c3NCc3ccc(C#N)cc3)c2c1`, the IC50 in test [2] turned out to be 46.3 µM.

On to `Cc1nc[nH]c1-c1nc2cnccn2c1NC1CCCCC1`, for which the half-inhibitory concentration (IC50) in test [1] came to 90.1 µM.

With `O=Cc1cccnc1Br`, the IC50 in test [1] was found to be 7.86 µM; in test [2], 5.48 µM.

As for `CCCOc1ccn2c(C(C)=O)cc(-c3nc4cnccn4c3NCCOC)c2c1`, the IC50 in test [1] was found to be 2850 µM.

In the case of `COCCNc1c(-c2nc[nH]c2C)nc2ccc(C(=O)OC)cn12`, the IC50 in test [1] is 511 µM.

Regarding `COC(=O)c1ccc2nc(-c3nc[nH]c3C)c(NCCc3ccc(OC)c(OC)c3)n2c1`, the IC50 in test [1] was found to be 377 µM.

`Brc1ccc2nc(-c3ccc4nccn4c3)c(NCCN3CCOCC3)n2c1`: the IC50 in test [1] was 1380 µM.

As to `COc1ccc(CCNc2c(-c3ccc4nccn4c3)nc3ccccn23)cc1OC`, the half-inhibitory concentration (IC50) in test [1] was determined as 1510 µM.

In the case of `COc1ccc(CCNc2c(-c3c[nH]c(C)n3)nc3ccc(Br)cn23)cc1OC`, the IC50 in test [1] came to 63.5 µM.

Consider `COC(=O)c1ccc2nc(-c3c[nH]c(C)n3)c(NCc3ccc(C#N)cc3)n2c1`, for which, in test [2], the IC50 is 650 µM.
